From patent US20100029654A1, “CARDIOVASCULAR COMPOSITIONS AND USE OF THE SAME FOR THE TREATMENT OF ALZHEIMER'S DISEASE” (MOUNT SINAI SCHOOL OF MEDICINE, priority 2006, published 2010) come the findings set out here.

One may read the EC50 as the concentration that produces a half-maximal response.

The subject of series [1] is Aβ1-42. The series is described as follows: Aβ1-42 content in conditioned medium of primary cortico-hippocampal neuron cultures from Tg2576 mice (ELISA; primary and secondary dose-response screening). The series is classed as cell-based, mouse. The conditions noted are these: for Ab1-42 (% of ctl) / activity at 100 µM: drug 100 μM; for activity at 100 µM: Mus musculus, Neuron, 24 h, read-out: Ab1-42 (% of ctl); for reducing Aβ1-42: <85% of ctl. The method, boiled down:
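Primary cortico-hippocampal neurons from embryonic Tg2576 mouse brain were seeded on poly-D-lysine-coated 96-well plates at 1.0×10^5 cells per well in serum-free Neurobasal medium with 2% B27, 0.5 mM L-glutamine and 1% penicillin-streptomycin. For primary screening, duplicate wells received 100 μM drug (1% DMSO final). Vehicle-treated cultures served as controls, and Aβ1-42 in conditioned medium was measured by commercial ELISA.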
(ELISA stands for enzyme-linked immunosorbent assay.)

The subject of series [2] is primary cortico-hippocampal neuron cultures. Briefly: lactate dehydrogenase (LDH) activity assay in parallel neuron cultures. The conditions noted are these: for LDH at E-5M % of change: drug at E-5M.
Protocol: For in vitro treatments drugs available from “The Spectrum Collection” in stocks of 10 mM in DMSO were applied directly to cultures to the desired concentrations (final 1% DMSO); control primary neuron cultures from Tg2576 embryos were treated with vehicle resulting in a final 1% DMSO.
Cell viability was assessed using a commercial available LDH assay kit according to the manufacture's instruction (Promega).
The test system of a further series is Aβ1-40. Briefly: Aβ1-40 content in conditioned medium of primary cortico-hippocampal neuron cultures from Tg2576 mice (ELISA; primary and secondary dose-response screening). The conditions noted are these: for activity at 100 µM: 24 h, read-out: Ab1-40 (% of ctl); for activity at 100 µM / Ab1-40 (% of ctl): drug 100 μM; for reduced Aβ1-40: <85% of ctl. The series is classed as cell-based, mouse. The method in brief: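 Primary cortico-hippocampal neurons from embryonic Tg2576 mice were plated at 1.0×10^5 cells per well on poly-D-lysine-coated 96-well plates in Neurobasal with 2% B27, 0.5 mM L-glutamine and 1% penicillin-streptomycin. Cultures received drug in 1% DMSO, and Aβ1-40 in the conditioned medium was measured by BioSource ELISA 24 hours after treatment, relative to vehicle controls.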

For series [3], the system named is primary cortico-hippocampal neuron cultures. Briefly: MTT in primary screening.
Series [4] relates to Aβ1-42. The series is described as follows: Aβ1-42 content in conditioned medium of primary cortico-hippocampal neuron cultures from Tg2576 mice (ELISA; primary and secondary dose-response screening). The conditions noted are these: Mus musculus, 24 h; for activity at 100 µM: primary screening, drug 100 μM, Tg2576 neuron cultures, table sorted by Aβ1-42, read-out: Ab1-42 (% of ctl); for EC50: Neuron, read-out: EC50 (molar) Aβ1-42. Format: cell-based, mouse.

The mark [5] stands for this setting: Primary Screening, table sorted by Aβ1-40.
Where [6] appears, read: primary screening, table sorted by Aβ1-42.
The mark [7] stands for this setting: Mus musculus, primary screening, Tg2576 neuron cultures, table sorted by Aβ1-42.
[8] abbreviates: primary screening, Tg2576 neuron cultures, table sorted by Aβ1-42.
[9] abbreviates: Primary Screening, table sorted by Aβ1-40, Hydrochloride.
[10] abbreviates: primary screening, table sorted by Aβ1-42, Hydrochloride.
The mark [11] stands for this setting: Mus musculus, Neuron, Primary Screening, table sorted by Aβ1-40.
[12] abbreviates: Mus musculus, Neuron, primary screening, Tg2576 neuron cultures, table sorted by Aβ1-42.
Where [13] appears, read: secondary dose-response screening 0.01-100 μM, 24 hours.
The mark [14] stands for this setting: conditioned medium of primary cortico-hippocampal neuron cultures from Tg2576 embryos, 24 hours after treatment, relative to vehicle (1% DMSO) control.

Where “and” joins values, the source holds several entries; their conditions need not be identical. Identical values can stand only once. Counter-ions that a name gives are not always drawn. Like-named read-outs stand apart in the source and are kept apart here.

For `COc1cc2c3cc1Oc1c(OC)c(OC)cc4c1[C@@H](Cc1cccc(c1)Oc1ccc(c(O)c1)C[C@@H]3N(C)CC2)N(C)CC4` [Berbamine Hydrochloride], the “Ab1-42 (% of ctl)” value in the series with Aβ1-42 [1] (setting [5]) is on record as 150.6 % of ctl. For the same molecule, the “LDH (% of ctl)” value in series [2] (setting [5]) and in series [2] (setting [6]) was 129.1 % of ctl throughout. The activity at 100 µM with Aβ1-40 (setting [7]) turned out to be 119%; with Aβ1-42 [4], 151%. In addition, the “Ab1-40 (% of ctl)” value in the series with Aβ1-40 (setting [5]) is 119.1 % of ctl. In addition, the “MTT (% of ctl)” value in series [3] (setting [5]) and in series [3] (setting [6]) was 97.6 % of ctl each time.
As to `CC(COc1ccccc1)NC(C)C(O)c1ccc(O)cc1` (stereo not shown) [Isoxsuprine Hydrochloride], the activity at 100 µM in the series with Aβ1-42 [1] (setting [5]) worked out at 83.7%; with Aβ1-42 [1] (setting [8]), 83.7%; in the series with Aβ1-40 (setting [11]) it was 78.3%; with Aβ1-40 (setting [12]), 78.3%. Moreover, the “reducing Aβ1-42” value with Aβ1-42 [1] (primary screening) is listed as “useful in reducing Aβ1-42”. Moreover, the “LDH (% of ctl)” value is 106.2 % of ctl and 107.7 % of ctl in series [2] (setting [9]); 106.2 % of ctl and 107.7 % of ctl in series [2] (setting [10]). The “LDH at E-5M % of change” value in series [2] is on record as 5.0%. Further, the “reduced Aβ1-40” value in the series with Aβ1-40 (primary screening) is reported as “reduced Aβ1-40”. For the same molecule, the “EC50 (molar) Aβ1-40” value in the series with Aβ1-40 (setting [13]) was “no fit”. Besides, the “MTT (% of ctl)” value in series [3] (setting [9]) is 99.8 % of ctl and 93.1 % of ctl; in series [3] (setting [10]) it was 99.8 % of ctl and 93.1 % of ctl. In addition, the EC50 in the series with Aβ1-42 [4] (setting [13]) was 8070 nM.
With `COC(=O)C1=C(C)NC(C)=C(C(=O)OC)C1c1ccccc1[N+](=O)[O-]` [Nifedipine], the activity at 100 µM in the series with Aβ1-42 [1] (setting [5]) came to 90.6%; with Aβ1-42 [1] (setting [8]) it was 90.6%; in the series with Aβ1-40 (setting [11]) it was 73.4%; in the series with Aβ1-40 (setting [12]), 73.4%. Besides, the “LDH (% of ctl)” value in series [2] (setting [5]) and in series [2] (setting [6]) was 76.1 % of ctl each time. Besides, in series [2], the “LDH at E-5M % of change” value worked out at 12.0%. For the same molecule, the “MTT (% of ctl)” value in series [3] (setting [5]) and in series [3] (setting [6]) was 98.7 % of ctl throughout. Also, the EC50 with Aβ1-42 [4] (setting [14]) and with Aβ1-42 [4] (setting [13]) was 73.6 nM in each case.
Take `CCN1C[C@]2(C)CC[C@H](OC)[C@@]34C1[C@]1(OCO[C@@]15C[C@H](OC)[C@H]1C[C@]3(O)[C@@H]5[C@H]1OC)[C@@H](OC(C)=O)[C@H]24` [Deltaline]: the “Ab1-42 (% of ctl)” value in the series on Aβ1-42 [1] (setting [5]) is 143.0 % of ctl. Further, the “LDH (% of ctl)” value in series [2] (setting [5]) and in series [2] (setting [6]) was 118.9 % of ctl in each case. The activity at 100 µM in the series on Aβ1-40 (setting [7]) came to 121%; in the series on Aβ1-42 [4], 143%. The “Ab1-40 (% of ctl)” value with Aβ1-40 (setting [5]) is 121.0 % of ctl. Also, the “MTT (% of ctl)” value in series [3] (setting [5]) and in series [3] (setting [6]) was 99.4 % of ctl each time.
As for `OCCN(CCO)c1nc(N2CCCCC2)c2nc(N(CCO)CCO)nc(N3CCCCC3)c2n1` [Dipyridamole], the activity at 100 µM in the series with Aβ1-42 [1] (setting [5]) was 62.6%; in the series with Aβ1-42 [1] (setting [8]), 62.6%; in the series on Aβ1-40 (setting [11]) it was 72.2%; in the series on Aβ1-40 (setting [12]) it was 72.2%. Moreover, the “reducing Aβ1-42” value with Aβ1-42 [1] (primary screening) is “useful in reducing Aβ1-42”. Also, the “LDH (% of ctl)” value in series [2] (setting [5]) and in series [2] (setting [6]) was 107.5 % of ctl throughout. Besides, in series [2], the “LDH at E-5M % of change” value worked out at 6.4%. The EC50 in the series with Aβ1-40 (Mus musculus, Neuron, secondary dose-response screening 0.01-100 μM, 24 hours, read-out: EC50 (molar) Aβ1-40) worked out at 16600 nM; in the series with Aβ1-42 [4] (setting [13]), 1240 nM. The “reduced Aβ1-40” value in the series with Aβ1-40 (primary screening) is “reduced Aβ1-40”. The “MTT (% of ctl)” value in series [3] (setting [5]) and in series [3] (setting [6]) was 102.7 % of ctl each time.
For `CCC[C@H](N[C@@H](C)C(=O)N1[C@H](C(=O)O)C[C@@H]2CCCC[C@@H]21)C(=O)OCC` [Perindopril Erbumine], the activity at 100 µM with Aβ1-42 [1] (setting [5]) came to 88.8%; in the series on Aβ1-42 [1] (setting [8]) it was 88.8%; in the series with Aβ1-40 (setting [11]) it was 83.8%; with Aβ1-40 (setting [12]), 83.8%. Further, the “LDH (% of ctl)” value in series [2] (setting [5]) and in series [2] (setting [6]) was 72.5 % of ctl each time. Besides, the “LDH at E-5M % of change” value in series [2] was −5.6%. The “EC50 (molar) Aβ1-40” value with Aβ1-40 (setting [14]) and in the series with Aβ1-40 (setting [13]) was “no fit” in each case. Further, the “reduced Aβ1-40” value with Aβ1-40 (primary screening) is “reduced Aβ1-40”. Moreover, the “MTT (% of ctl)” value in series [3] (setting [5]) and in series [3] (setting [6]) was 95.3 % of ctl each time. The results for the EC50 in the series on Aβ1-42 [4] (setting [14]) and in the series with Aβ1-42 [4] (setting [13]) were 4.5 nM and 4.05 nM, respectively.
